Source: patent EP4361137A1, “PRUNE1 INHIBITORS AND THERAPEUTIC USE THEREOF” (CEINGE Biotecnologie Avanzate Franco Salvatore s.c. a r.l., priority 2022, dated 2024)

What was measured:
[1] = tested on: human PRUNE1; assay: qPCR of PRUNE1 mRNA in D425-MED cells; type: cell-based; conditions: 10 µM, 24 hours, relative to vehicle (2^-ΔΔCt)
Method: (§1) D425.MED and MMTV-Prune1/Wnt1 cells were plated and treated with increasing concentrations of LEO-AA7.5(S)T for 24 hours. Water-treated cells were used as negative control for the experiments.
(§2) RNA samples were extracted using TRIzol RNA Isolation Reagent (15596026, Invitrogen), according to the manufacturer instructions. Reverse transcription was performed with 5× All-In-One RT MasterMix (g592; ABM), according to the manufacturer instructions. The reverse transcription products (cDNA) were amplified by qRT-PCR using an RT-PCR system (7900; Applied Biosystems, Foster City, CA, USA). The cDNA preparation was through the cycling method, by incubating the complete reaction mix as follows: cDNA reactions: (37 °C for 10 min and 60 °C for 15 min); Heat-inactivation: 95 °C for 3 min; Hold stage: 4 °C. The targets were detected with the SYBR green approach, using BrightGreen BlasTaq 2× PCR MasterMix (G895; ABM). Human ACTB was used as the housekeeping gene to normalize the quantification cycle (Cq) values of the other genes. […] Relative expression of the target genes was determined using the 2^-ΔΔCq method, as the fold increase compared with the controls. […]

[2] = tested on: MATH1-Prune1/ TP53-/-; assay: Orthotopic implantation of MATH1-Prune1/TP53-/- cells in immunocompetent syngeneic mice, survival analysis; type: in vivo, FVB WT mice
Method: MATH1-Prune1/ TP53-/- were implanted into the right cerebellar hemisphere of female (n.24) immunocompetent syngeneic mice model (5 weeks old, strain: FVB WT). to establish intracerebellar MATH1-Prune1/ TP53-/- models, mice were anaesthetised with Ketamine/ Xylazine (87.5 mg/kg, 12.5 mg/kg, respectively). The mice were then placed in a stereotactic frame by hooking their incisors onto the frame hold. […] The mice were monitored daily for development of potential neurological deficits. For LEO-AA7.5(S)T in-vivo treatment, starting after 10 days from tumour implantation (i.e., once the tumours were established) the mice (grouped according to body weight values) were injected intraperitoneally with LEO-AA7.5(S)T at 6 mg/kg/day, or with water as the vehicle for the control group. mouse body weights were measured at the indicated time points. Mouse survival was closely monitored during the entire experimental period.

[3] = tested on: MATH1-Prune1/TP53-/- cells; assay: Real-time cell proliferation assay (cell index, xCELLigence); type: cell-based, murine; conditions: impedance every 2 min over 24 h
Method: Primary murine TNBC cells from tumors generated by MMTV-Prune1/Wnt1 mice [Ferrucci et al., 2021] and Primary murine Medulloblastoma Group 3 cells from tumors generated MATH-Prune1/TP53-/- mice were obtained (2 months from tumor onset).
Cellular proliferation rates were determined with the xCELLigence system (Roche). D425-MED, MATH-Prune1/TP53-/- and MMTV-Prune1/Wnt1 cells (8 × 10^3) were treated with increasing concentrations of LEO-AA7.5(S)T, harvested, and then added to a single well of an xCELLigence E-plate 16. The proliferation rates were determined at 2-min intervals by measuring the impedance changes across the electrodes at the bottoms of the wells. These cell index values were calculated by the xCELLigence RTCA software. with vehicle-treated cells were the negative control. Impedance was measured every 2 min over 24 hours. The IC50 values were calculated through nonlinear regression analysis performed with Graph Pad Prism 9 ([inhibitor] vs. response (three parameters). Data are means ± SD of three independent experiments.

[4] = tested on: human and murine Prune1; assay: qPCR of PRUNE1 mRNA in MMTV-Prune1/Wnt1 cells; type: cell-based; parameters: dose or concentration left out as unconfirmed
Method: as §1, §2

COc1ccc(CNc2ncnc(N3CCC[C@H](CO)C3)n2)cc1.Cl [LEO-AA7.5(S)T, (S)-(1-(4-((4-methoxybenzyl)amino)-1,3,5-triazin-2-yl)piperidin-3-yl)methanol HCl salt]
endogenous Prune1 mRNA [1]: 0.3 fold | toxic effects (body weight) ([2]; 6 mg/kg/day intraperitoneally): no toxic effects | overall survival ([2]; 6 mg/kg/day intraperitoneally from day 10 after implantation): improved overall survival | half maximal inhibitory concentration (IC50) for the inhibition of cell proliferation index [3]: 31.1 µM | degradation of human and murine Prune transcript [4]: enhance the degradation
